Test results as given in patent publication US7691856B2, “Thiadiazoledioxides and thiadiazoleoxides as CXC- and CC-chemokine receptor ligands” (Schering Corporation, priority 2002, dated 2010).

Experiments:
[1] = target: T1, CCR7 (Homo sapiens, UniProt P32248); test: CCR7 [35S]GTPγS exchange assay (SPA, Ba/F3-CCR7 membranes)
T1 sequence (P32248 25-378): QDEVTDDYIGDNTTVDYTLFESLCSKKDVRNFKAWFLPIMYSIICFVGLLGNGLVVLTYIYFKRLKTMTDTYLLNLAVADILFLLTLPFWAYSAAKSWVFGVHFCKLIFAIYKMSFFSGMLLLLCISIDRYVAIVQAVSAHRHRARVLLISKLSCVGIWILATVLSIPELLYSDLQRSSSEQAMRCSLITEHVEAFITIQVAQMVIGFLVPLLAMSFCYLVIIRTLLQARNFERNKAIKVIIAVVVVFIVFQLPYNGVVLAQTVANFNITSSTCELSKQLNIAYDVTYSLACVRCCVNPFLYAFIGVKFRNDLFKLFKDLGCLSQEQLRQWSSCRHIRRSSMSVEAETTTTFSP
Experimental: CCR7 [^35S]GTPγS Exchange Assay.
The exchange of guanosine 5′-[γ-^35S]triphospate ([^35S]GTPγS, triethylammonium salt; specific activity 1250 Ci/mmol; NEN Boston, Mass.) was measured using a scintillation proximity assay (SPA) as previously described (Cox, et. al., Mol. Pharmacol., 59, 2001, 707-15). For each assay point, 2 μg of membrane was preincubated for 30 min at room temperature with 200 μg wheat germ agglutinin-coated SPA beads (WGA-SPA; Amersham, Arlington Heights, Ill.) in SPA binding buffer (50 mM HEPES, 10 mM MgCl2, 1 mM EDTA, 100 mM NaCl, 0.1% BSA, pH 7.6). The beads and membranes were transferred to a 96-well Isoplate (Wallac, Gaithersburg, Md.) and incubated with 10 μM guanosine 5′-diphosphate (GDP) in the presence or absence of 2 nM MIP-30 and/or compounds for 60 min at room temperature. The incubation continued for another 60 min. following the addition of 0.1 nM [^35S]GTPγS. Membrane-bound [^35S]GTPγS was measured using a 1450 Microbeta Trilux counter (Wallac, Gaithersburg, Md.).

[2] = target: T2, hCXCR2 (Homo sapiens, UniProt P25025); test: CXCR2 SPA assay ([125I]-IL-8 binding, hCXCR2-CHO membranes); settings: [125I]-IL-8 binding to hCXCR2-CHO membranes
T2 construct: purchased Biosignal / Biosignal Packard; host or cells: CHO cells over-expressing hCXCR2 (membranes)
T2 sequence (P25025 1-360): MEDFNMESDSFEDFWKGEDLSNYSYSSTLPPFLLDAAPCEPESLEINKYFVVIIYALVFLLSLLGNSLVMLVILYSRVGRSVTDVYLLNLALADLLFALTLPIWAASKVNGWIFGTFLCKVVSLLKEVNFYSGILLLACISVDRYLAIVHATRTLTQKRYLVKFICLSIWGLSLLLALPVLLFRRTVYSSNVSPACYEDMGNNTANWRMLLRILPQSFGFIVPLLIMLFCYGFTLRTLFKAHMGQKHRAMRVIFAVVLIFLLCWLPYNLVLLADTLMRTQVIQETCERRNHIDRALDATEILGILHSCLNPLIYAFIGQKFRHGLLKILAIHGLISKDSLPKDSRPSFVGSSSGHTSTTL
Experimental: For each well of a 96 well plate, a reaction mixture of 4 μg hCXCR2-CHO overexpressing membranes (Biosignal) and 200 μg/well WGA-SPA beads (Amersham) in 100 μl was prepared in CXCR2 assay buffer (25 mM HEPES, pH 7.4, 2 mM CaCl2, 1 mM MgCl2). A 0.4 nM stock of ligand, [125I]-IL-8 (NEN), was prepared in the CXCR2 assay buffer. 20× stock solutions of test compounds were prepared in DMSO (Sigma). A 6× stock solution of GRO-α (R&D) was prepared in CXCR2 assay buffer. The above solutions were added to a 96-well assay plate (PerkinElmer or Corning) as follows: 10 μl test compound or DMSO, 40 ul CXCR2 assay buffer or GRO-α stock, 100 μl of reaction mixture, 50 μl of ligand stock (Final [Ligand]=0.1 nM). When 40× stock solutions of test compounds in DMSO were prepared, then the above protocol was used except instead 5 μl test compound or DMSO and 45 μl CXCR2 assay buffer were used. […]
For each 50 μl reaction, a working stock of 0.031 μg/μl hCXCR2-CHO over-expressing membranes with a specific activity of 0.4 pmol/mg (Biosignal Packard) and 2.5 μg/μl WGA-SPA beads (Perkin Elmer Life Sciences) was prepared in CXCR2 assay buffer (25 mM HEPES, pH 7.4, 2.0 mM CaCl2, 1 mM MgCl2) (Sigma). […] The assay plates were incubated for 2 hours before cpm/well were determined in a Microbeta Trilux counter (Perkin Elmer Life Sciences). IC50 values were quantified using nonlinear regression analysis in GraphPad Prism. […]
For each 200 μl reaction, a working stock of 0.02 μg/μl hCXCR2-CHO over-expressing membranes with a specific activity of 0.6 pmol/mg (Biosignal Packard) and 2 μg/μl WGA-SPA beads (Perkin Elmer Life Sciences) was prepared in CXCR2 assay buffer (25 mM HEPES, pH 7.4, 2.0 mM CaCl2, 1 mM MgCl2) (Sigma). […] The assay plates were incubated for 2 hours before cpm/well were determined in a Microbeta Trilux counter (Perkin Elmer Life Sciences). IC50 values were quantified using nonlinear regression analysis in GraphPad Prism.

[3] = target: T3, hCXCR1 (Homo sapiens, UniProt P25024); test: CXCR1 SPA assay ([125I]-IL-8 binding, hCXCR1-CHO membranes); settings: [125I]-IL-8 binding to hCXCR1-CHO membranes
T3 construct: purchased Biosignal / Biosignal Packard; alternatively Euroscreen; host or cells: CHO cells over-expressing hCXCR1 (membranes)
T3 sequence (P25024 1-350): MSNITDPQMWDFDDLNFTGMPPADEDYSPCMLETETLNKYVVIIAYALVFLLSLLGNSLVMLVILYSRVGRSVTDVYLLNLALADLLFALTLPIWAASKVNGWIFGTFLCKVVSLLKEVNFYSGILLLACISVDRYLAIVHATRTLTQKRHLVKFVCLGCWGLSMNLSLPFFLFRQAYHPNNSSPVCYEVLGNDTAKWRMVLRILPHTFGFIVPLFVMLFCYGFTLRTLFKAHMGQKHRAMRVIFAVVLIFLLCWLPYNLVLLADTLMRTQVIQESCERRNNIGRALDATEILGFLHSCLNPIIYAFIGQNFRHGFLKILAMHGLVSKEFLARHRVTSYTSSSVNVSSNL
Experimental: For each well of a 96 well plate, a reaction mixture of 10 μg hCXCR1-CHO overexpressing membranes (Biosignal) and 200 μg/well WGA-SPA beads (Amersham) in 100 μl was prepared in CXCR1 assay buffer (25 mM HEPES, pH 7.8, 2 mM CaCl2, 1 mM MgCl2, 125 mM NaCl, 0.1% BSA) (Sigma). A 0.4 nM stock of ligand, [125I]-IL-8 (NEN) was prepared in the CXCR1 assay buffer. 20× stock solutions of test compounds were prepared in DMSO (Sigma). A 6× stock solution of IL-8 (R&D) was prepared in […] assay buffer. The above solutions were added to a 96-well assay plate (PerkinElmer) as follows: 10 μl test compound or DMSO, 40 μl CXCR1 assay buffer or IL-8 stock, 100 μl of reaction mixture, 50 μl of ligand stock (Final [Ligand]=0.1 nM). The assay plates were shaken for 5 minutes on plate shaker, then incubated for 8 hours before cpm/well were determined in Microbeta Trilux counter (PerkinElmer). % Inhibition of Total binding-NSB (250 nM IL-8) was determined for IC50 values.
Alternative CXCR1 SPA Assay
Protocol using CXCR1-expressing membranes from Biosignal Packard
For each 50 μl reaction, a working stock of 0.25 μg/μl hCXCR1-CHO over-expressing membranes with a specific activity of 0.05 pmol/mg (Biosignal Packard) and 25 μg/μl WGA-SPA beads (Perkin Elmer Life Sciences) was prepared in CXCR1 assay buffer (25 mM HEPES, pH 7.8, 0.1 mM CaCl2, 1 mM MgCl2, 100 mM NaCl) (Sigma). […] The assay plates were incubated for 4 hours before cpm/well were determined in a Microbeta Trilux counter (Perkin Elmer Life Sciences). IC50 values were quantified using nonlinear regression analysis in GraphPad Prism. […]
For each 50 μl reaction, a working stock of 0.025 μg/μl hCXCR1-CHO over-expressing membranes with a specific activity of 3.47 pmol/mg (Euroscreen) and 5 μg/μl WGA-SPA beads (Perkin Elmer Life Sciences) was prepared in CXCR1 assay buffer (25 mM HEPES, pH 7.8, 2.0 mM CaCl2, 1 mM MgCl2, 125 mM NaCl) (Sigma). […] The assay plates were incubated for 4 hours before cpm/well were determined in a Microbeta Trilux counter (Perkin Elmer Life Sciences). […]

| Structure (SMILES) | EC50 [1] | Ki [2] | Ki [3] |
| --- | --- | --- | --- |
| Cc1ccc([C@H](NC2=NS(=O)(=O)N=C2Nc2csc(S(=O)(=O)N3CCOCC3)c2O)C(C)(C)C)o1 [Example 2066] | 16 nM |  |  |
| CC(C)c1coc([C@H](NC2=NS(=O)(=O)N=C2Nc2ccc(Br)c(C(=O)N(C)C)c2O)C(C)(C)C)c1 [Example 56] |  | 7 nM | 4 nM |
| CCC(C)(C)[C@@H](NC1=NS(=O)(=O)N=C1Nc1cccc(C(=O)N(C)C)c1O)c1ccc(C)o1 [Example 2106] | 12 nM |  |  |
| CCN(CC)S(=O)(=O)c1scc(NC2=NS(=O)(=O)N=C2N[C@@H](c2ccc(C)o2)C(C)(C)C)c1O [Example 2065] | 13 nM |  |  |

Next, values leading:

| EC50 [1] | Ki [2] | Ki [3] | Structure (SMILES) |
| --- | --- | --- | --- |
|  | 3.5 nM | 123 nM | CC[C@@H](Nc1n[s+]([O-])nc1Nc1cccc(C(=O)N(C)C)c1O)c1cc(C(C)C)co1 (stereo partly drawn) [Example 201.1] |
|  | 2.7 nM | 50 nM | Cc1cc([C@H](Nc2n[s+]([O-])nc2Nc2cccc(C(=O)N(C)C)c2O)C(C)C)oc1C (stereo partly drawn) [Example 201.9] |
